Assay: Storage coloration test of Elobixibat, additive and their mixtures (visual observation)
Format: physicochemical
Excerpt: 1,1-dioxo-3,3-dibutyl-5-phenyl-7-methylthio-8-(N—{(R)-1′-phenyl-1′-[N′-(carboxymethyl)carbamoyl]methyl}carbamoylmethoxy)-2,3,4,5-tetrahydro-1,5-benzothiazepine (Elobixibat) and an additive shown in Table 1 were mixed so that they have a volume ratio of 1:1 based on visual quantities, and thereby, the mixtures according to Reference Examples 3 to 9 were obtained. […] The mixture of each of Reference Examples 3 to 9, only Elobixibat as Reference Example 1, and only Macrogol (polyethylene glycol) 6000 as Reference Example 2 were independently stored in an aluminum bag as an airtight container for 2 weeks under the conditions of 60° C. and 75% relative humidity. After storage, the presence or absence of coloration of the materials of Reference Examples 1 and 2 and the mixtures according to Reference Examples 3 to 9 was visually observed.

## CCCCC1(CCCC)CN(c2ccccc2)c2cc(SC)c(OCC(=O)N[C@@H](C(=O)NCC(=O)O)c3ccccc3)cc2S(=O)(=O)C1 [Reference Example 1, 1,1-dioxo-3,3-dibutyl-5-phenyl-7-methylthio-8-(N—{(R)-1′-phenyl-1′-[N′-(carboxymethyl)carbamoyl]methyl}carbamoylmethoxy)-2,3,4,5-tetrahydro-1,5-benzothiazepine]
Colour before and after 2 weeks at 60° C. and 75% relative humidity in aluminum bag
  Coloration after storage: Before storage → after storage: white → white
Stored in aluminum bag (airtight container) for 2 weeks at 60° C. and 75% relative humidity, visually observed
  Coloration after storage: Not observed

— patent US11844822B2, “Solid formulation and method for preventing or reducing coloration thereof” (Elobix AB, priority 2014, dated 2023)
